Laboratory results as given in patent US20050112573A1, “Method of detecting toxic substance” (priority 2001, published 2005).

System: yeast genes (level of expressed mRNA)
Test: DNA chip analysis of expressed mRNA of yeast genes after 2 h culture with a toxic chemical substance
Format: cell-based, Saccharomyces cerevisiae S288C
Outline: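 Values are treated-to-control fluorescence ratios from a whole-yeast-genome DNA chip (65° C, over 12 h hybridization) using Cy3/Cy5-labelled cDNA from mRNA. Log-phase S288C cells in YPD at 25° C were exposed 2 h to a toxicant at sublethal, growth-inhibiting concentration.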

γ-hexachlorocyclohexane [(7)] was tested, and the “The level of expressed mRNA in the presence of chemical substance/The level of expressed mRNA in the absence of chemical substance” value (yeast gene YKL096W) was 0.2, the “The level of expressed mRNA in the presence of chemical substance/The level of expressed mRNA in the absence of chemical substance” value (yeast gene YKL139W) was 2.6 and the “The level of expressed mRNA in the presence of chemical substance/” value (yeast gene YKL151C, ratio to control without chemical substance, 2 h culture) was 5.6. For the same substance, the “The level of expressed mRNA in the presence of chemical substance/” value (yeast gene YKL153W, ratio to control without chemical substance, 2 h culture) was 1.1, the “The level of expressed mRNA in the presence of chemical substance/The level of expressed mRNA in the absence of chemical substance” value (yeast gene YKL165C) was 2.1 and the “The level of expressed mRNA in the presence of chemical substance/The level of expressed mRNA in the absence of chemical substance” value (yeast gene YKL193C) was 2.1. For the same substance, the “The level of expressed mRNA in the presence of chemical substance/” value (yeast gene YKL195W, ratio to control without chemical substance, 2 h culture) was 2.1, the “The level of expressed mRNA in the presence of chemical substance/in the absence of chemical substance” value (yeast gene YKR009C) was 1.0 and the “The level of expressed mRNA in the presence of chemical substance/The level of expressed mRNA in the absence of chemical substance” value (yeast gene YKR014C) was 1.7. The “The level of expressed mRNA in the presence of chemical substance/” value (yeast gene YKR091W, ratio to control without chemical) was 1.3, the “The level of expressed mRNA in the presence of chemical substance/” value (yeast gene YLR054C, ratio to control without chemical substance, 2 h culture) was 1.1 and the “The level of expressed mRNA in the presence of chemical substance/The level of expressed mRNA in the absence of chemical substance” value (yeast gene YLR120C) was 1.5. For the same substance, the “The level of expressed mRNA in the presence of chemical substance/The level of expressed mRNA in the absence of chemical substance” value (yeast gene YLR136C) was 3.9, the “The level of expressed mRNA in the presence of chemical substance/” value (yeast gene YLR149C, ratio to control without chemical substance, 2 h culture) was 1.6 and the “The level of expressed mRNA in the presence of chemical substance/” value (yeast gene YLR152C, ratio to control without chemical substance, 2 h culture) was 1.4. For the same substance, the “The level of expressed mRNA in the presence of chemical substance/The level of expressed mRNA in the absence of chemical substance” value (yeast gene YLR178C) was 3.3, the “The level of expressed mRNA in the presence of chemical substance/” value (yeast gene YLR194C, ratio to control without chemical) was 1.0 and the “The level of expressed mRNA in the presence of chemical substance/The level of expressed mRNA in the absence of chemical substance” value (yeast gene YLR250W) was 1.9. The “The level of expressed mRNA in the presence of chemical substance/” value (yeast gene YLR324W, ratio to control without chemical substance, 2 h culture) was 1.0, the “The level of expressed mRNA in the presence of chemical substance/The level of expressed mRNA in the absence of chemical substance” value (yeast gene YLR327C) was 5.7 and the “The level of expressed mRNA in the presence of chemical substance/” value (yeast gene YLR350W, ratio to control without chemical substance, 2 h culture) was 1.2. The “The level of expressed mRNA in the presence of chemical substance/in the absence of chemical substance” value (yeast gene YLR351C) was 1.4, the “The level of expressed mRNA in the presence of chemical substance/The level of expressed mRNA in the absence of chemical substance” value (yeast gene YLR356W) was 1.1 and the “The level of expressed mRNA in the presence of chemical substance/The level of expressed mRNA in the absence of chemical substance” value (yeast gene YLR362W) was 1.9. For the same substance, the “The level of expressed mRNA in the presence of chemical substance/in the absence of chemical substance” value (yeast gene YLR375W) was 0.9, the “The level of expressed mRNA in the presence of chemical substance/” value (yeast gene YLR387C, ratio to control without chemical substance, 2 h culture) was 1.1 and the “The level of expressed mRNA in the presence of chemical substance/The level of expressed mRNA in the absence of chemical substance” value (yeast gene YLR391W) was 0.7. The “The level of expressed mRNA in the presence of chemical substance/The level of expressed mRNA in the absence of chemical substance” value (yeast gene YLR429W) was 1.3, the “The level of expressed mRNA in the presence of chemical substance/” value (yeast gene YLR460C, ratio to control without chemical substance, 2 h culture) was 1.1 and the “The level of expressed mRNA in the presence of chemical substance/” value (yeast gene YML117W, ratio to control without chemical substance, 2 h culture) was 0.7. The “The level of expressed mRNA in the presence of chemical substance/The level of expressed mRNA in the absence of chemical substance” value (yeast gene YMR004W) was 1.2, the “The level of expressed mRNA in the presence of chemical substance/” value (yeast gene YMR009W, ratio to control without chemical substance, 2 h culture) was 1.9 and the “The level of expressed mRNA in the presence of chemical substance/” value (yeast gene YMR067C, ratio to control without chemical substance, 2 h culture) was 1.2. The “The level of expressed mRNA in the presence of chemical substance/” value (yeast gene YMR090W, ratio to control without chemical substance, 2 h culture) was 2.7, the “The level of expressed mRNA in the presence of chemical substance/The level of expressed mRNA in the absence of chemical substance” value (yeast gene YMR094W) was 0.8 and the “The level of expressed mRNA in the presence of chemical substance/” value (yeast gene YMR095C, ratio to control without chemical) was 1.2. For the same substance, the “The level of expressed mRNA in the presence of chemical substance/” value (yeast gene YMR097C, ratio to control without chemical substance, 2 h culture) was 1.5, the “The level of expressed mRNA in the presence of chemical substance/” value (yeast gene YMR102C, ratio to control without chemical substance, 2 h culture) was 1.8 and the “The level of expressed mRNA in the presence of chemical substance/The level of expressed mRNA in the absence of chemical substance” value (yeast gene YMR104C) was 1.5. The “The level of expressed mRNA in the presence of chemical substance/” value (yeast gene YMR107W, ratio to control without chemical substance, 2 h culture) was 1.2, the “The level of expressed mRNA in the presence of chemical substance/” value (yeast gene YMR180C, ratio to control without chemical substance, 2 h culture) was 1.7 and the “The level of expressed mRNA in the presence of chemical substance/” value (yeast gene YMR184W, ratio to control without chemical substance, 2 h culture) was 1.6. The “The level of expressed mRNA in the presence of chemical substance/” value (yeast gene YMR191W, ratio to control without chemical substance, 2 h culture) was 2.0, the “The level of expressed mRNA in the presence of chemical substance/The level of expressed mRNA in the absence of chemical substance” value (yeast gene YMR226C) was 1.8 and the “The level of expressed mRNA in the presence of chemical substance/in the absence of chemical substance” value (yeast gene YMR267W) was 1.2. The “The level of expressed mRNA in the presence of chemical substance/The level of expressed mRNA in the absence of chemical substance” value (yeast gene YMR275C) was 0.8, the “The level of expressed mRNA in the presence of chemical substance/The level of expressed mRNA in the absence of chemical substance” value (yeast gene YMR276W) was 1.1 and the “The level of expressed mRNA in the presence of chemical substance/in the absence of chemical substance” value (yeast gene YMR278W) was 1.8. For the same substance, the “The level of expressed mRNA in the presence of chemical substance/in the absence of chemical substance” value (yeast gene YMR293C) was 1.2, the “The level of expressed mRNA in the presence of chemical substance/” value (yeast gene YMR295C, ratio to control without chemical substance, 2 h culture) was 1.3 and the “The level of expressed mRNA in the presence of chemical substance/The level of expressed mRNA in the absence of chemical substance” value (yeast gene YMR314W) was 1.1. For the same substance, the “The level of expressed mRNA in the presence of chemical substance/” value (yeast gene YMR316W, ratio to control without chemical substance, 2 h culture) was 2.0, the “The level of expressed mRNA in the presence of chemical substance/The level of expressed mRNA in the absence of chemical substance” value (yeast gene YNL006W) was 1.6 and the “The level of expressed mRNA in the presence of chemical substance/The level of expressed mRNA in the absence of chemical substance” value (yeast gene YNL007C) was 1.2. For the same substance, the “The level of expressed mRNA in the presence of chemical substance/” value (yeast gene YNL044W, ratio to control without chemical substance, 2 h culture) was 0.9.
